Source: patent US20240277246A1, “MANGANESE-ENHANCED MAGNETIC RESONANCE IMAGING” (IC Targets AS, priority 2021, published 2024)
Where two headings read alike, the source gives them in different places.

Experiments:
[1] = tested on: cardiomyocytes (left ventricle myocardium; uptake via L-type calcium channels); assay: Manganese-enhanced T1 mapping MRI, kinetic analysis of cardiomyocyte cellular manganese uptake after MnDPDP infusion; type: in vivo, human
Method: A midventricular short axis view was used and a region of interest in the left ventricle myocardium and a region of interest in the blood in the ventricular cavity was used for measurements. […] The total infusion time was 7.5 minutes. T1 mapping MRI was performed every 2.5 minutes for a total of 40 minutes to collect data for kinetic analysis.
After the examination, the myocardial T1 values were converted to changes in relaxation rates from the baseline values according to equation 12. The heamocrit for the subject was measured to 0.44 and the plasma T1 values were converted to changes in relaxation rates according to equation 13.
This is what would be expected from the loss of cells without a loss of individual cell function. Thus, by applying the prior art method, it would therefore wrongly be concluded that the cellular manganese flux rate was reduced.
The rate constant for cardiomyocyte intracellular relaxivity increase Kcell^ΔR1, and thus the cardiomyocyte cellular manganese uptake rate Kcell^Mn, was calculated according to the invention, applying equation 20 where the constant KECF was set equal to 1. The Kcell^Mn value was 0.0650 min^−1. The data used to calculate the rate constant is shown graphically in FIG. 8 (“ict”), corresponding to a straight line with slope=Kcell^Mn=0.0650 min^−1 and intercept=ECV=0.35. […]
If the ECF was in equilibrium with plasma, the slope would be the ECV=0.322. However, due to the uptake of manganese into the cardiomyocytes, the ECF is in dynamic equilibrium with plasma with a manganese concentration ratio of
Assuming that the rate constant for diffusion between plasma and the ECF is the same in both directions, K1=K2 and K3/K1=1/KECF−1=1/0.72−1=0.40.
When the ratio between the manganese concentration in the ECF and plasma can be estimated, the apparent cellular rate constant Kcell^Mn*KECF can be converted to the actual cellular uptake rate constant Kcell^Mn by division with KECF.

[2] = corresponds to end of infusion
Method: A midventricular short axis view was used and a region of interest in the left ventricle myocardium and a region of interest in the blood in the ventricular cavity were used for measurements. […] The total infusion time was 7.5 minutes. T1 mapping MRI was performed every 2.5 minutes for a total of 40 minutes to collect data for kinetic analysis.
After the examination, the myocardial T1 values were converted to changes in relaxation rates from the baseline values according to equation 12. The heamocrit for the subject was measured to 0.41 and the plasma T1 values were converted to changes in relaxation rates according to equation 13.
A midventricular short axis view was used in each patient and a region of interest in the left ventricle myocardium and a region of interest in the blood in the ventricular cavity was used for measurements. […] The total infusion time was 7.5 minutes. T1 mapping MRI was performed every 2.5 minutes for a total of 40 minutes to collect data for kinetic analysis.
After the examinations, the myocardial T1 values were converted to changes in relaxation rates from the baseline values according to equation 12. The average heamocrit for the 5 subjects was measured to 0.416 and the plasma T1 values were converted to changes in relaxation rates according to equation 13.

With `Cc1ncc(COP(=O)(O)O)c(CN(CCN(CC(=O)[O-])Cc2c(COP(=O)(O)O)cnc(C)c2O)CC(=O)[O-])c1O.[Mn+2]` [MnDPDP, manganese (II) N,N′-dipyridoxyl-ethylenediamine-N,N′-diacetate-5,5′-bis(phosphate)] the “cardiomyocyte cellular manganese uptake rate Kcell^Mn (corrected by division with KECF)” value ([1]; average of 5 patients with hypertrophic cardiomyopathia, KECF 0.72) was 0.096, the “apparent cellular rate constant Kcell^Mn*KECF” value ([1]; average of 5 patients with hypertrophic cardiomyopathia, linear regression without restrictions to the intercept) was 0.0691 and the “slope of the Patlak line (prior art method)” value ([1]; healthy volunteer, 5 μmol/kg infusion over 7.5 min) was 0.0484 min⁻¹. For the same molecule, the “cardiomyocyte cellular manganese uptake rate Kcell^Mn” value ([1]; healthy volunteer, 5 μmol/kg infusion over 7.5 min, equation 20, KECF set to 1, forced intercept ECV 0.25) was 0.0591 min⁻¹, the “uptake rate constant by the Patlak method of prior art” value ([1]; patient with dilated cardiomyopathia, 5 μmol/kg infusion over 7.5 min) was 0.0429 and the “cardiomyocyte cellular manganese uptake rate Kcell^Mn” value ([1]; patient with dilated cardiomyopathia, 5 μmol/kg infusion over 7.5 min, equation 20, KECF set to 1, forced intercept ECV 0.35) was 0.0650 min⁻¹. The “time at which plasma ΔR1 is highest” value ([2]; average of 5 patients with hypertrophic cardiomyopathia) was 7.5 min, the “time at which plasma ΔR1 is highest” value ([2]; healthy volunteer) was 7.5 min and the “time at which plasma ΔR1 is highest” value ([2]; patient with dilated cardiomyopathia) was 7.5 min.
